Read-outs that look alike come from different tables or passages of the source.
Tested on: adult mongrel dogs
Test: Renal vasodilating activity in anesthetized dogs
Format: in vivo, mongrel dog
Details: for change in vivo at 1.2 mg/kg / change in vivo at 1.34 mg/kg / change in vivo at 6.2 mg/kg / change in vivo at 0.3 mg/kg: Canis lupus familiaris; for change in vivo at 1.34 mg/kg: dose 1.34 mpk; for MABP: percent change in mean arterial blood pressure / RBF: percent change in renal blood flow / RVR: percent change in renal vascular resistance: 1.2 mg/kg
Protocol: Goldberg et al., J. Pharmacol. Exp. Ther., 163, 188 (1968), performed an investigation of the structural requirements for dopamine-like renal vasodilation of phenethylamines and apomorphine. The following procedure is a variation of the assay described in that report.
Adult mongrel dogs were anesthetized and surgically prepared for electromagnetic measurement of renal artery blood flow. A carotid artery was cannulated for measuring arterial blood pressure and drugs were administered intravenously or intraarterially (via the renal artery). Heart rate was monitored with a cardiotachometer. Renal vascular resistance was calculated as the ratio of mean arterial blood pressure to renal artery blood flow. Dopamine was infused intravenously at 3 μg/kg/min for ten minutes (at an infusion rate of about 1 ml/min) to determine responsiveness of each dog to renal dopamine receptor stimulation. Cumulative dose-response data were obtained by infusing a compound of this invention at progressively increasing (usually three-fold) infusion rates, each dose being infused for five minutes. The maximum percent change from pre-drug control in renal artery blood flow (or in renal vascular resistance) was determined for each infusion dose.
RBF, RVR, MABP, and HR values are percent changes in renal blood flow, renal vascular resistance, mean arterial blood pressure, and heart rate, respectively, relative to control values.

[1] = read-out: HR: percent change in heart rate, dose 1.2 mpk, relative to controls
[2] = read-out: MABP: percent change in mean arterial blood pressure, dose 1.2 mpk, relative to controls
[3] = read-out: RBF: percent change in renal blood flow, dose 1.2 mpk, relative to controls
[4] = read-out: RVR: percent change in renal vascular resistance, dose 1.2 mpk, relative to controls
[5] = dose 6.2 mpk, relative to controls, read-out: HR: percent change in heart rate
[6] = dose 6.2 mpk, relative to controls, read-out: MABP: percent change in mean arterial blood pressure
[7] = dose 6.2 mpk, relative to controls, read-out: RBF: percent change in renal blood flow
[8] = dose 6.2 mpk, relative to controls, read-out: RVR: percent change in renal vascular resistance
[9] = dose 1.2 mpk, relative to controls, read-out: HR: percent change in heart rate
[10] = dose 1.2 mpk, relative to controls, read-out: MABP: percent change in mean arterial blood pressure
[11] = dose 1.2 mpk, relative to controls, read-out: RBF: percent change in renal blood flow
[12] = dose 1.2 mpk, relative to controls, read-out: RVR: percent change in renal vascular resistance
[13] = dose 1.2 mpk, relative to controls
[14] = read-out: HR: percent change in heart rate, dose 6.2 mpk, relative to controls
[15] = read-out: MABP: percent change in mean arterial blood pressure, dose 6.2 mpk, relative to controls
[16] = read-out: RBF: percent change in renal blood flow, dose 6.2 mpk, relative to controls
[17] = read-out: RVR: percent change in renal vascular resistance, dose 6.2 mpk, relative to controls

CCN(CC)C(=O)Oc1nc(C)c2cc(OC)c(OC)cc2c1NC(N)=O [Cmpd 47, 3-Diethylcarbamyloxy-6,7-dimethoxy-1-methyl-4-ureidoisoquinoline]
change in vivo at 1.2 mg/kg [1]: -3%
change in vivo at 1.2 mg/kg [2]: 11%
change in vivo at 1.2 mg/kg [3]: 17%
change in vivo at 1.2 mg/kg [4]: -4%

COc1cc2c(C)nc(OC(C)=O)c(Br)c2cc1OC [Cmpd 1]
change in vivo at 1.34 mg/kg (relative to controls, read-out: HR: percent change in heart rate): 37%
change in vivo at 1.34 mg/kg (relative to controls, read-out: MABP: percent change in mean arterial blood pressure): -21%
change in vivo at 1.34 mg/kg (relative to controls, read-out: RBF: percent change in renal blood flow): 22%
change in vivo at 1.34 mg/kg (relative to controls, read-out: RVR: percent change in renal vascular resistance): 35%

COc1cc2c(C)nc(OCOC(=O)C(C)(C)C)c([N+](=O)[O-])c2cc1OC [Cmpd 77]
change in vivo at 6.2 mg/kg [5]: 5%
change in vivo at 6.2 mg/kg [6]: -3%
change in vivo at 6.2 mg/kg [7]: 7%
change in vivo at 6.2 mg/kg [8]: -8%

C=CCNC(=O)Nc1c(OC(=O)N2CCN(C(=O)OC(C)(C)C)CC2)nc(C)c2cc(OC)c(OC)cc12 [Cmpd 75]
change in vivo at 1.2 mg/kg [1]: 12%
change in vivo at 1.2 mg/kg [2]: 9%
change in vivo at 1.2 mg/kg [3]: 27%
change in vivo at 1.2 mg/kg [4]: -15%

COc1cc2c(C)nc(OC(=O)N3CCN(C(=O)OC(C)(C)C)CC3)c([N+](=O)[O-])c2cc1OC [Cmpd 68]
change in vivo at 0.3 mg/kg (read-out: HR: percent change in heart rate, dose 0.3 mpk, relative to controls): 11%
change in vivo at 0.3 mg/kg (read-out: MABP: percent change in mean arterial blood pressure, dose 0.3 mpk, relative to controls): -1%
change in vivo at 0.3 mg/kg (read-out: RBF: percent change in renal blood flow, dose 0.3 mpk, relative to controls): 17%
change in vivo at 0.3 mg/kg (read-out: RVR: percent change in renal vascular resistance, dose 0.3 mpk, relative to controls): -13%

CCCCCC(=O)Nc1c(OC(=O)N(CC)CC)nc(C)c2cc(OC)c(OC)cc12 [Cmpd 81]
change in vivo at 6.2 mg/kg [5]: -8%
change in vivo at 6.2 mg/kg [6]: 9%
change in vivo at 6.2 mg/kg [7]: 39%
change in vivo at 6.2 mg/kg [8]: -21%

COc1ccc(NC(=O)Nc2c(OC(C)=O)nc(C)c3cc(OC)c(OC)cc23)cc1 [Cmpd 32]
change in vivo at 1.2 mg/kg [9]: -23%
change in vivo at 1.2 mg/kg [10]: 1%
change in vivo at 1.2 mg/kg [11]: 6%
change in vivo at 1.2 mg/kg [12]: -4%

C=CCNC(=O)Nc1c(OC(=O)N2CCCC2)nc(C)c2cc(OC)c(OC)cc12 [Cmpd 59]
change in vivo at 1.2 mg/kg [1]: 2%
change in vivo at 1.2 mg/kg [2]: 1%
change in vivo at 1.2 mg/kg [3]: 23%
change in vivo at 1.2 mg/kg [4]: -16%

C=CCNC(=O)Nc1c(OC(=O)N(c2ccccc2)c2ccccc2)nc(C)c2cc(OC)c(OC)cc12 [Cmpd 60]
change in vivo at 1.2 mg/kg [1]: 8%
change in vivo at 1.2 mg/kg [2]: 4%
change in vivo at 1.2 mg/kg [3]: 27%
change in vivo at 1.2 mg/kg [4]: -17%

C=CCNC(=O)Nc1c(OC(=O)N(C)C)nc(C)c2cc(OC)c(OC)cc12 [Cmpd 67]
change in vivo at 1.2 mg/kg [1]: 0%
MABP: percent change in mean arterial blood pressure [13]: +7 percent change
RBF: percent change in renal blood flow [13]: +50 percent change
RVR: percent change in renal vascular resistance [13]: -28 percent change

CCOc1cc2c([N+](=O)[O-])c(OC(=O)N(C)C)nc(C)c2cc1OC [Cmpd 24]
change in vivo at 6.2 mg/kg [14]: 53%
change in vivo at 6.2 mg/kg [15]: -12%
change in vivo at 6.2 mg/kg [16]: 22%
change in vivo at 6.2 mg/kg [17]: -28%

CCCCNC(=O)Nc1c(OC(=O)N2CCCC2)nc(C)c2cc(OC)c(OC)cc12 [Cmpd 55]
change in vivo at 1.2 mg/kg [1]: 2%
change in vivo at 1.2 mg/kg [2]: -4%
change in vivo at 1.2 mg/kg [3]: 14%
change in vivo at 1.2 mg/kg [4]: -14%

COc1cc2c(C)nc(OC(=O)N3CCCC3)c([N+](=O)[O-])c2cc1OC [Cmpd 52]
change in vivo at 6.2 mg/kg [14]: 0%
change in vivo at 6.2 mg/kg [15]: -15%
change in vivo at 6.2 mg/kg [16]: 41%
change in vivo at 6.2 mg/kg [17]: -37%

CCOc1cc2c(C)nc(OC(=O)N3CCN(C(=O)OC(C)(C)C)CC3)c([N+](=O)[O-])c2cc1OC [Cmpd 69]
change in vivo at 6.2 mg/kg [14]: 21%
change in vivo at 6.2 mg/kg [15]: 6%
change in vivo at 6.2 mg/kg [16]: 24%
change in vivo at 6.2 mg/kg [17]: -14%

COc1cc2c(C)nc(OS(C)(=O)=O)c([N+](=O)[O-])c2cc1OC [Cmpd 16]
change in vivo at 6.2 mg/kg [5]: 19%
change in vivo at 6.2 mg/kg [6]: -6%
change in vivo at 6.2 mg/kg [7]: 12%
change in vivo at 6.2 mg/kg [8]: -16%

CCCCNC(=O)Nc1c(OC(=O)N(CC)CC)nc(C)c2cc(OCC)c(OC)cc12 [Cmpd 45]
change in vivo at 1.2 mg/kg [1]: 11%
change in vivo at 1.2 mg/kg [2]: 12%
change in vivo at 1.2 mg/kg [3]: 15%
change in vivo at 1.2 mg/kg [4]: -2%

COc1cc2c(C)nc(OC(C)=O)c(N(C(C)=O)C(C)=O)c2cc1OC [Cmpd 17, 4-N,N-Diacetamido-3-acetoxy-6,7-dimethoxy-1-methylisoquinoline]
change in vivo at 6.2 mg/kg [5]: -12%
change in vivo at 6.2 mg/kg [6]: 13%
change in vivo at 6.2 mg/kg [7]: 63%
change in vivo at 6.2 mg/kg [8]: -24%

COc1cc2c(C)nc(OC(C)=O)c([N+](=O)[O-])c2cc1OC [Cmpd 2, 3-Acetoxy-6,7-dimethoxy-1-methyl-4-nitroisoquinoline]
change in vivo at 6.2 mg/kg [5]: -2%
change in vivo at 6.2 mg/kg [6]: -8%
change in vivo at 6.2 mg/kg [7]: 17%
change in vivo at 6.2 mg/kg [8]: -16%

C=CCNC(=O)N(C(=O)NCC=C)c1c(OC(=O)N(CC)CC)nc(C)c2cc(OC)c(OC)cc12 [Cmpd 49]
change in vivo at 1.2 mg/kg [9]: -6%
change in vivo at 1.2 mg/kg [10]: 2%
change in vivo at 1.2 mg/kg [11]: 14%
change in vivo at 1.2 mg/kg [12]: -8%

C=CCNC(=O)Nc1c(OC(=O)N(C(C)C)C(C)C)nc(C)c2cc(OC)c(OC)cc12 [Cmpd 62]
change in vivo at 1.2 mg/kg [1]: 0%
change in vivo at 1.2 mg/kg [2]: 11%
change in vivo at 1.2 mg/kg [3]: 17%
change in vivo at 1.2 mg/kg [4]: -5%

C=CCNC(=O)Nc1c(OC(=O)N(CC)CC)nc(C)c2cc(OC)c(OC)cc12 [Cmpd 50]
change in vivo at 1.2 mg/kg [1]: -2%
change in vivo at 1.2 mg/kg [2]: 0%
change in vivo at 1.2 mg/kg [3]: 20%
change in vivo at 1.2 mg/kg [4]: -16%

COc1cc2c(C)nc(OC(=O)c3ccc(Cl)cc3)c([N+](=O)[O-])c2cc1OC [Cmpd 15]
change in vivo at 6.2 mg/kg [5]: 3%
change in vivo at 6.2 mg/kg [6]: -1%
change in vivo at 6.2 mg/kg [7]: 15%
change in vivo at 6.2 mg/kg [8]: -14%

CCCCNC(=O)Nc1c(OS(=O)(=O)N(C)C)nc(C)c2cc(OC)c(OC)cc12 [Cmpd 64]
change in vivo at 1.2 mg/kg [9]: 0%
change in vivo at 1.2 mg/kg [10]: 4%
change in vivo at 1.2 mg/kg [11]: 15%
change in vivo at 1.2 mg/kg [12]: -9%

C=CCNC(=O)Nc1c(OS(=O)(=O)N(C)C)nc(C)c2cc(OC)c(OC)cc12 [Cmpd 65]
change in vivo at 1.2 mg/kg [9]: -7%
change in vivo at 1.2 mg/kg [10]: -1%
change in vivo at 1.2 mg/kg [11]: 25%
change in vivo at 1.2 mg/kg [12]: -22%

CCOc1cc2c(C)nc(OC(=O)C(C)C)c([N+](=O)[O-])c2cc1OC [Cmpd 5]
change in vivo at 6.2 mg/kg [5]: 36%
change in vivo at 6.2 mg/kg [6]: -10%
change in vivo at 6.2 mg/kg [7]: 42%
change in vivo at 6.2 mg/kg [8]: -36%

CCN(CC)C(=O)Oc1nc(C)c2cc(OC)c(OC)cc2c1NC(=O)Nc1ccc(OC)cc1 [Cmpd 51]
change in vivo at 1.2 mg/kg [9]: 25%
change in vivo at 1.2 mg/kg [10]: -6%
change in vivo at 1.2 mg/kg [11]: 17%
change in vivo at 1.2 mg/kg [12]: -20%

CCCCNC(=O)Nc1c(OC(=O)N(c2ccccc2)c2ccccc2)nc(C)c2cc(OC)c(OC)cc12 [Cmpd 57]
change in vivo at 1.2 mg/kg [1]: 7%
change in vivo at 1.2 mg/kg [2]: 4%
change in vivo at 1.2 mg/kg [3]: 28%
change in vivo at 1.2 mg/kg [4]: -18%

CCOc1cc2c(C)nc(OS(C)(=O)=O)c([N+](=O)[O-])c2cc1OC [Cmpd 6]
change in vivo at 6.2 mg/kg [5]: -10%
change in vivo at 6.2 mg/kg [6]: -2%
change in vivo at 6.2 mg/kg [7]: 38%
change in vivo at 6.2 mg/kg [8]: -28%

C=CCNC(=O)Nc1c(OC(=O)N(C)C)nc(C)c2cc(OC)c(OC)cc12 [Cmpd 40]
MABP: percent change in mean arterial blood pressure [13]: -1 percent change
RBF: percent change in renal blood flow [13]: +9 percent change
RVR: percent change in renal vascular resistance [13]: -9 percent change

CCCCNC(=O)Nc1c(OC(=O)N(C(C)C)C(C)C)nc(C)c2cc(OC)c(OC)cc12 [Cmpd 61]
change in vivo at 1.2 mg/kg [1]: 11%
change in vivo at 1.2 mg/kg [2]: -1%
change in vivo at 1.2 mg/kg [3]: 47%
change in vivo at 1.2 mg/kg [4]: -32%

CCCCNC(=O)Nc1c(OC(=O)N(CC)CC)nc(C)c2cc(OC)c(OC)cc12 [Cmpd 38, 4-[N'-(n-Butylureido)]-3-diethylcarbamyloxy-6,7-dimethoxy-1-methylisoquinoline]
change in vivo at 6.2 mg/kg [14]: -4%
change in vivo at 6.2 mg/kg [15]: 5%
change in vivo at 6.2 mg/kg [16]: 34%
change in vivo at 6.2 mg/kg [17]: -21%
